Test results taken from patent US12234232B2, “Aromatic heterocyclic compound with kinase inhibitory activity” (SHANGHAI ENNOVABIO PHARMACEUTICALS CO., LTD., priority 2018, dated 2025).

Key:
JAK2 [1] = molecular target: T1, JAK2 (Homo sapiens, UniProt O60674); assay: Cellular JAK2 activity assay: EPO-stimulated STAT5 phosphorylation in TF-1 cells; assay type: cell-based; design: endogenous in cells; host or cells: TF-1 cells (ATCC); settings: EPO (10 U/mL), pSTAT5, read-out: IC50 Cell JAK2
Procedure: (§1) In TF-1 cells, IL-6 stimulation leads to phosphorylation of STAT3 through JAK1, while EPO stimulants phosphorylation of STAT5 via JAK2.
(§2) TF-1 cells were obtained from American Type Culture Collection (ATCC). TF-1 cells were starved overnight (cell density was 100,000 cells/well at plating) in OptiMEM medium without phenol red containing 0.5% fetal bovine serum (FBS), 0.1 mM non-essential amino acids (NEAA), 1 mM sodium pyruvate at 37° C. The compound was serially diluted in DMSO, added to TF-1 cells and incubated at 37° C. for 20 minutes. The final concentration of DMSO was 0.2%. Then, human recombinant cytokine IL-6 (30 ng/mL) or EPO (10 U/mL) was added to the wells containing TF-1 cells. After the cell plate was incubated for 30 minutes, cells were lysed, and the phosphorylation of STAT3 (IL-6) or STAT5 (EPO) in the cell lysate (pSTAT3/total STAT3 Elisa Kit: CST #7300C/CST #7305C; pSTAT5 and total STAT5 Elisa Kit: Abcam #ab205715) was measured. The IC50 value was determined as the concentration of the compound required to inhibit STAT phosphorylation by 50% relative to the measured DMSO control.

JAK1 [2] = molecular target: T2, JAK1 (Homo sapiens, UniProt P23458); assay: Cellular JAK1 activity assay: IL-6-stimulated STAT3 phosphorylation in TF-1 cells; assay type: cell-based; design: endogenous in cells; host or cells: TF-1 cells (ATCC); settings: IL-6 (30 ng/mL), pSTAT3, read-out: IC50 Cell JAK1
T2 sequence (P23458 whole entry): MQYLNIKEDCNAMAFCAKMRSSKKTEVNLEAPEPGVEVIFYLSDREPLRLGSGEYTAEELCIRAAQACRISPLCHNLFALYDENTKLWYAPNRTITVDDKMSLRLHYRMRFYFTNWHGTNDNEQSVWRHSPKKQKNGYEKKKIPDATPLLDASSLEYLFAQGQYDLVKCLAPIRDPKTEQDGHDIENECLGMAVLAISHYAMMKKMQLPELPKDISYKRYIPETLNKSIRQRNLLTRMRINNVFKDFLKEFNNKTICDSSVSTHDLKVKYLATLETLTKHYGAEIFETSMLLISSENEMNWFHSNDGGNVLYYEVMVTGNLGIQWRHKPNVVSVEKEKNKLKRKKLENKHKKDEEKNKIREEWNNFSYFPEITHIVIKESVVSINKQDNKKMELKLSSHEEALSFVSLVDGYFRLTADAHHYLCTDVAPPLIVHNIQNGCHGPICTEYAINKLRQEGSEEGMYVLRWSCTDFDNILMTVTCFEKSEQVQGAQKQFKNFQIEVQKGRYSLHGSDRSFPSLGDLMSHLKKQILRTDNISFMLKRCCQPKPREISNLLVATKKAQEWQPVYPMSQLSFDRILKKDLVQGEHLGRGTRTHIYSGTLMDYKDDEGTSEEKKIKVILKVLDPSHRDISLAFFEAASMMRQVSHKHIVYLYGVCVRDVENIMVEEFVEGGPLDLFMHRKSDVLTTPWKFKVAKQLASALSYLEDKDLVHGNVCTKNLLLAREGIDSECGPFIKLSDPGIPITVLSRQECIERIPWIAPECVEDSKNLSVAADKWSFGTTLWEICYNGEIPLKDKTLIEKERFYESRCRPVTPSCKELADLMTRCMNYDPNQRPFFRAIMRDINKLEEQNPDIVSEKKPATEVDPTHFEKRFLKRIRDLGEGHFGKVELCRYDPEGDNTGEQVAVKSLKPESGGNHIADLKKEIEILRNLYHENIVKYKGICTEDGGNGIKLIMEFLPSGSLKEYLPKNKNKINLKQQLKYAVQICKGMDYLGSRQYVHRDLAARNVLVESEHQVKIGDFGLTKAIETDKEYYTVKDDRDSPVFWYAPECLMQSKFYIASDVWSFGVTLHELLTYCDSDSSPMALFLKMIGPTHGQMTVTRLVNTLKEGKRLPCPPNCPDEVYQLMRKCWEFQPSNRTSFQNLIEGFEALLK
Procedure: as §1, §2

JAK2 [3] = molecular target: T1, JAK2; assay: In vitro JAK2 kinase activity assay (HTRF kinEASE TK); assay type: biochemical; design: purchased Carna Biosciences; settings: 2.7 μM ATP, 25 minutes, room temperature; read-out: IC50 JAK2 (enzyme activity assay)
Procedure: (§3) Recombinant human JAK1 protein was purchased from Thermo Fisher. JAK2 and JAK3 proteins were purchased from Carna Biosciences. HTRF kinEASE TK kit was purchased from Cisbio Bioassays. BioTek microplate reader Synergy Neo 2 was used to read the plate.
(§4) The test compounds were of 4-fold serial dilution, and the final concentration ranged from 10 μM to 0.04 nM in duplicates for each concentration. The concentration of DMSO in the reaction system was 1%.
(§5) The reaction included 0.001 ng/μl JAK 2 protein kinase, 1 μM TK Substrate-biotin peptide substrate, 2.7 μM ATP, 1× enzymatic buffer, 5 mM MgCl2, and 1 mM DTT. The detection plate was White Proxiplate 384-Plus plate (PerkinElmer), and the mixture (10 μl) was reacted at room temperature for 25 minutes.
(§6) Reaction detection: 10 μl of detection reagent was added to the reaction plate containing final concentration of 0.125 μM of SA-XL665 and 5 μl 1×TK-Antibody. The mixture was incubated overnight at room temperature. The plate was read using Synergy Neo 2.
(§7) Data analysis: 665/620 Ratio was converted into inhibition rate (%) through the following formula: inhibition rate (%)=(Ratiomax−Ratiotest)/(Ratiomax−Ratiomin)×100%. Ratiomax is a positive control without detection compound, Ratiomin is a negative control without detection compound and kinase, Ratiotest is the detection value of each concentration of different compounds. 4 parameter curve fitting was performed to measure the IC50 (nM) values. The details are shown in, Table 1.

JAK3 protein = molecular target: T3, JAK3 protein (Homo sapiens, UniProt P52333); assay: In vitro JAK3 kinase activity assay (HTRF kinEASE TK); assay type: biochemical; settings: 0.75 μM ATP, 25 minutes, room temperature; read-out: IC50 JAK3 (enzyme activity assay)
T3 construct: purchased Carna Biosciences
T3 sequence (P52333 1-1124): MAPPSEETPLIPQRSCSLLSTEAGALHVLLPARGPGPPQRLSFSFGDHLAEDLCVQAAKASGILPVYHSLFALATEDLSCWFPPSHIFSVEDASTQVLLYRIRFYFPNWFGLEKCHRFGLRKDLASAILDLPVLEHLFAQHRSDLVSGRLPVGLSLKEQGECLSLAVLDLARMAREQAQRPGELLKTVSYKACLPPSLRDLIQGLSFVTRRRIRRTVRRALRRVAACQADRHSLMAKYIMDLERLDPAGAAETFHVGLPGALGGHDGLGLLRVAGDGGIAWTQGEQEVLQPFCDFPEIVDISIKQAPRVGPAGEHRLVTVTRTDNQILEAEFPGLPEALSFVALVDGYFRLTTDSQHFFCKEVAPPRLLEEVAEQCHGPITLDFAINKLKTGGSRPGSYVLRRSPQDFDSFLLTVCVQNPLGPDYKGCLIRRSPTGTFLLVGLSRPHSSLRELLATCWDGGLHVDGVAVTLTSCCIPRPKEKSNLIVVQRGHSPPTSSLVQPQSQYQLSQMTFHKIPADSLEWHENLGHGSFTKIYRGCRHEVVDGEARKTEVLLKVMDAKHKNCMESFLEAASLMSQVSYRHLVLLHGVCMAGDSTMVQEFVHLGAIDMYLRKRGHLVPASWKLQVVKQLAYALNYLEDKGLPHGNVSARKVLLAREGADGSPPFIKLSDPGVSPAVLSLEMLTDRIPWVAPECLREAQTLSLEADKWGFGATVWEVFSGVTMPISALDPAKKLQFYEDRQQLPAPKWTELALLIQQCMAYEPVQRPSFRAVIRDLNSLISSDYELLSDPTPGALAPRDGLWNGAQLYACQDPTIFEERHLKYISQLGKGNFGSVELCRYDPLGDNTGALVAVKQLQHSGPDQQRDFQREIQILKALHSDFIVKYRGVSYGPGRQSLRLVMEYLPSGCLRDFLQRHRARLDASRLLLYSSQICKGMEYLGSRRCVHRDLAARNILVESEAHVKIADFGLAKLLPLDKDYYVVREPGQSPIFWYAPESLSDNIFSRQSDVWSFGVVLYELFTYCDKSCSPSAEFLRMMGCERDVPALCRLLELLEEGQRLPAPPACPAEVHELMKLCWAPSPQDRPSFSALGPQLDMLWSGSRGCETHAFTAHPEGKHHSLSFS
Procedure: as §3, §4
as §5, with “included […]” for “included 0.001 ng/μl”, “JAK 3” for “JAK 2”, “substrate, 0.75” for “substrate, 2.7”
as §6, §7

JAK1 [4] = molecular target: T2, JAK1; assay: In vitro JAK1 kinase activity assay (HTRF kinEASE TK); assay type: biochemical; design: purchased Thermo Fisher; settings: 1.1 μM ATP, 60 minutes, room temperature; read-out: IC50 JAK1 (enzyme activity assay)
Procedure: as §3, §4
as §5, with “0.5” for “0.001”, “1” for “2”, “1.1” for “2.7”, “MgCl2,” for “MgCl2, and”, “MnCl2, 1 mM DTT, and 2.5 nM SEB.” for “DTT.”, “60” for “25”
as §6, §7

T1 sequence (O60674 whole entry): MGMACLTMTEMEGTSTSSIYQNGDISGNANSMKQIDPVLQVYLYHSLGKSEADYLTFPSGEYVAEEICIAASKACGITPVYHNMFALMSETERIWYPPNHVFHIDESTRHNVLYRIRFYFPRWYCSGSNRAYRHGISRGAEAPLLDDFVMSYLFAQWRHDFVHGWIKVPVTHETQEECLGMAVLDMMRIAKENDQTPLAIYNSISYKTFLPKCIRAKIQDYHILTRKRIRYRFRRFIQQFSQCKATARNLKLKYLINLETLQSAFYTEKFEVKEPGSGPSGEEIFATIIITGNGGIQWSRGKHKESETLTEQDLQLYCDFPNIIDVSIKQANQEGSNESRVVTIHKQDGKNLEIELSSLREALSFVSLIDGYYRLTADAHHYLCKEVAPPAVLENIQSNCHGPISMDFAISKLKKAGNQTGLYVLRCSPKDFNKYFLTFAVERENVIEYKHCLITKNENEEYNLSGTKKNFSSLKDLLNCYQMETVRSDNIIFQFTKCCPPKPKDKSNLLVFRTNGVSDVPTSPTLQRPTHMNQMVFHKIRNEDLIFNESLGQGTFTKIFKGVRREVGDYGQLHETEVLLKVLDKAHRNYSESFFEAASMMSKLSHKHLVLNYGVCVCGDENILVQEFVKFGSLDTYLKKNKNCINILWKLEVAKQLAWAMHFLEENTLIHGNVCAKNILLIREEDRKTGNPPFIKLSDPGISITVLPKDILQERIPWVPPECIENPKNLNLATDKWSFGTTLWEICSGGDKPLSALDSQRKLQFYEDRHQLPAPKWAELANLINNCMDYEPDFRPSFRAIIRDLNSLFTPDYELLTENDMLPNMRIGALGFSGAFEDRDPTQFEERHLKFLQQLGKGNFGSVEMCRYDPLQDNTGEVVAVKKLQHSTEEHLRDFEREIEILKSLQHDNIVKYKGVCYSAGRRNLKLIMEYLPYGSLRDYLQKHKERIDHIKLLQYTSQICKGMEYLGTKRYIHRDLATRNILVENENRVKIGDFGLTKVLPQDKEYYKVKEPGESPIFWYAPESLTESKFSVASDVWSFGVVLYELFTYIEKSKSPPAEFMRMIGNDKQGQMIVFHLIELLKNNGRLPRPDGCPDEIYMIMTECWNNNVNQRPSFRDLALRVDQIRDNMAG

| Compound | IC50 (JAK2 [1]) [µM] | IC50 (JAK1 [2]) [nM] | IC50 (JAK2 [3]) [nM] | IC50 (JAK3 protein) [nM] | IC50 (JAK1 [4]) [nM] |
| --- | --- | --- | --- | --- | --- |
| CCC(C(=O)Nc1nccc2c(-c3nc(Nc4cn(C)nc4OC)ncc3C)c[nH]c12)N1CCN(C)CC1 (stereo not shown) [Example 2, N-(3-(2-((3-Methoxy-1-methyl-1H-pyrazol-4-yl)amino)-5-methylpyrimidin-4-yl)-1H-pyrrolo[2,3-c]pyridin-7-yl)-2-(4-methylpiperazin-1-yl)butanamide] | < 10 | < 100 | < 100 | < 500 | 5 to 50 |
| CC[C@@H](C(=O)Nc1nccc2c(-c3nc(Nc4cn(C)nc4OC)ncc3C)c[nH]c12)N1CCN(C)CC1 [Example 3, (S)—N-(3-(2-((3-Methoxy-1-methyl-1H-pyrazol-4-yl)amino)-5-methylpyrimidin-4-yl)-1H-pyrrolo[2,3-c]pyridin-7-yl)-2-(4-methylpiperazin-1-yl)butanamide] | < 10 | < 100 | < 100 | < 500 | 5 to 50 |
| COc1nn(C)cc1Nc1ncc(C)c(-c2c[nH]c3c(Nc4cn(C)nc4OC)nccc23)n1 [Example 5, N-(3-Methoxy-1-methyl-1H-pyrazol-4-yl)-3-(2-((3-methoxy-1-methyl-1H-pyrazole-4-yl)amino)-5-methylpyrimidin-4-yl)-1H-pyrrolo[2,3-c]pyridin-7-amine] | > 20 | 100 to 1000 | < 100 | < 500 | 5 to 50 |
| COc1nn(C)cc1Nc1ncc(C)c(-c2c[nH]c3c(NC(=O)C(C(C)C)N4CCN(C)CC4)nccc23)n1 (stereo not shown) [Example 6] | < 10 | 100 to 1000 | < 100 | < 500 | 5 to 50 |
| COc1nn(C)cc1Nc1ncc(C)c(-c2c[nH]c3c(NC(=O)[C@@H](C)N4CCOCC4)nccc23)n1 [Example 7] | 10 to 20 | 100 to 1000 | < 100 | < 500 | 5 to 50 |
| CCC(C(=O)Nc1nccc2c(-c3nc(Nc4cn(C)nc4OC)ncc3C)c[nH]c12)N1CCC(O)C1 (stereo not shown) [Example 8] | > 20 | 100 to 1000 | < 100 | < 500 | 5 to 50 |
| CCC(C(=O)Nc1nccc2c(-c3nc(Nc4cn(C)nc4OC)ncc3C)c[nH]c12)N1CCC(N(C)C)CC1 (stereo not shown) [Example 9] | < 10 | 100 to 1000 | < 100 | < 500 | 5 to 50 |
| CCC(C(=O)Nc1nccc2c(-c3nc(Nc4cn(C)nc4OC)ncc3C)c[nH]c12)N1CC(C)N(C)C(C)C1 (stereo not shown) [Example 10] | > 20 | > 1000 | 100 to 10000 | 500 to 10000 | 5 to 50 |
| COc1nn(C)cc1Nc1ncc(C)c(-c2c[nH]c3c(NC(N)=O)nccc23)n1 [Example 12] | < 10 | < 100 | < 100 | < 500 | < 5 |

Results, then the molecule that gave them:

| IC50 (JAK2 [1]) [µM] | IC50 (JAK1 [2]) [nM] | IC50 (JAK2 [3]) [nM] | IC50 (JAK3 protein) [nM] | IC50 (JAK1 [4]) [nM] | Compound |
| --- | --- | --- | --- | --- | --- |
| > 20 | 100 to 1000 | 100 to 10000 | 500 to 10000 | < 5 | CCC(C(=O)Nc1nccc2c(-c3nc(Nc4cccc(S(C)(=O)=O)c4F)ncc3C)c[nH]c12)N1CCN(C)CC1 (stereo not shown) [Example 19, N-(3-(2-((2-Fluoro-3-(methylsulfonyl)phenyl)amino)-5-methylpyrimidin-4-yl)-1H-pyrrolo[2,3-c]pyridin-7-yl)-2-(4-methylpiperazin-1-yl)butanamide] |
| < 10 | 100 to 1000 | < 100 | 500 to 10000 | 5 to 50 | CCC(C(=O)Nc1nccc2c(-c3nc(Nc4cccc(NS(C)(=O)=O)c4F)ncc3C)c[nH]c12)N1CCN(C)CC1 (stereo not shown) [Example 22, N-(3-(2-((2-Fluoro-3-(methylsulfonylamino)phenyl)amino)-5-methylpyrimidin-4-yl)-1H-pyrrolo[2,3-c]pyridin-7-yl)-2-(4-methylpiperazin-1-yl)butanamide] |
| 10 to 20 | 100 to 1000 | 100 to 10000 | 500 to 10000 | 5 to 50 | CCC(C(=O)Nc1nccc2c(-c3nc(Nc4cccc(S(C)(=O)=O)c4F)ncc3C)c[nH]c12)N1CC2CCC(C1)N2C (stereo not shown) [Example 23, N-(3-(2-((2-Fluoro-3-(methylsulfonyl)phenyl)amino)-5-methylpyrimidin-4-yl)-1H-pyrrolo[2,3-c]pyridin-7-yl)-2-(8-methyl-3,8-diazabicyclo[3.2.1]octane-3-yl)butanamide] |
| > 20 | 100 to 1000 | 100 to 10000 | 500 to 10000 | 5 to 50 | CCC(C(=O)Nc1nccc2c(-c3nc(Nc4cccc(S(C)(=O)=O)c4F)ncc3C)c[nH]c12)N1CC2(CCN(C)CC2)C1 (stereo not shown) [Example 24, N-(3-(2-((2-Fluoro-3-(methylsulfonyl)phenyl)amino)-5-methylpyrimidin-4-yl)-1H-pyrrolo[2,3-c]pyridin-7-yl)-2-(7-methyl-2,7-diazaspiro[3.5]nonane-2-yl)butanamide] |
| > 20 | 100 to 1000 | 100 to 10000 | 500 to 10000 | < 5 | CCC(C(=O)Nc1nccc2c(-c3nc(Nc4cccc(S(C)(=O)=O)c4F)ncc3F)c[nH]c12)N1CCN(C)CC1 (stereo not shown) [Example 27, N-(3-(5-Fluoro-2-((2-fluoro-3-(methylsulfonyl)phenyl)amino)pyrimidin-4-yl)-1H-pyrrolo[2,3-c]pyridin-7-yl)-2-(4-methylpiperazin-1-yl) butanamide] |
